{"source": "BindingDB's records for doi:10.1021/cc100073a", "about": "(Amgen, 2010)", "assay_in_all_cases": "PHD Enzymatic Assay", "key": {"Prolyl hydroxylase EGLN3": {"molecular_target": "Prolyl hydroxylase EGLN3 (Homo sapiens, UniProt Q9H6Z9)", "sequence (Q9H6Z9 whole entry)": "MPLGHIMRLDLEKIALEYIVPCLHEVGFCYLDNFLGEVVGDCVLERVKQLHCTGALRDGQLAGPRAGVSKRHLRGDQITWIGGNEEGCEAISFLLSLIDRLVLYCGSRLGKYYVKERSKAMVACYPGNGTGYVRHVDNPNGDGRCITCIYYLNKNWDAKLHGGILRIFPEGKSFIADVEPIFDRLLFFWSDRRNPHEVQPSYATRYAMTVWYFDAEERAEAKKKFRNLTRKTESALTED", "procedure": "(§1) PHD1,2,3 activity was measured utilizing homogeneous time-resolved fluroescence energy transfer techology by detecting the trans-4-hydroxylatio of HIF-1alpha residue pro564 in biotin-hHIR-1alpha(558-574)(Biotin-DLEMLAPYIPMDDDFQL)peptide substrate resulting in a recognition by the Europium-tagged Von Hippel Lindau, Elongin B and Dlongin C heterotrimeric complex (VCB-Eu complex)"}, "Prolyl hydroxylase EGLN2": {"molecular_target": "Prolyl hydroxylase EGLN2 (Homo sapiens, UniProt Q96KS0)", "sequence (Q96KS0 whole entry)": "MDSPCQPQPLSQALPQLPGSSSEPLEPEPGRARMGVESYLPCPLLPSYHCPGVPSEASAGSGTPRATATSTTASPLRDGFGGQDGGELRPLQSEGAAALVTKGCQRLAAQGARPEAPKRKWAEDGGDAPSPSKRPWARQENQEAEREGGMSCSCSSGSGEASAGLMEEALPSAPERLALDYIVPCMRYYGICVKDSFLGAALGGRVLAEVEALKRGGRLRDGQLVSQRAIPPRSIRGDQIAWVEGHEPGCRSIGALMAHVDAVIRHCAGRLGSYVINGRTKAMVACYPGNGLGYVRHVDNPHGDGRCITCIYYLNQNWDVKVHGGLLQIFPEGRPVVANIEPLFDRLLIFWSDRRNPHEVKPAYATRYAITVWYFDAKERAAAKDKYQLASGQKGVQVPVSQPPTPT", "procedure": "as §1"}, "Egl nine homolog 1": {"molecular_target": "Egl nine homolog 1 (Homo sapiens, UniProt Q9GZT9)", "sequence (Q9GZT9 whole entry)": "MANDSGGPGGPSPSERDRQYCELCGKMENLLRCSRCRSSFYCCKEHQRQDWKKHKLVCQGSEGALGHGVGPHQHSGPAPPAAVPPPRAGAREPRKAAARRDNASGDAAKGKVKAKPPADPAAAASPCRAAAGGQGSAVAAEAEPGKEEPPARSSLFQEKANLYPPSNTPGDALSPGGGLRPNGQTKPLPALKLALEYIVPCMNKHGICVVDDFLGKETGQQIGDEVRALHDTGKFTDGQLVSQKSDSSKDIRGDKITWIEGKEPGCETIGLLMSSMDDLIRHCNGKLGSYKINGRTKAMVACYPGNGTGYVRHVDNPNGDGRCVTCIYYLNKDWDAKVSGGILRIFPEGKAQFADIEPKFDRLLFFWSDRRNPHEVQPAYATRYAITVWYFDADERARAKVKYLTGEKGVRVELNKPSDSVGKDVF", "procedure": "as §1"}}, "note": "“And” between values parts separate entries of the source, which are not always exact repeats. Equal values may be shown once."}
{"molecule": "CC(C)C[C@@H](NC(=O)C(C)(C)C)C(=O)N[C@H](Cc1ccccc1)C(=O)NCc1ccc2c(c1)c(O)c(C(=O)NCC(=O)O)c(=O)n2C", "note": "[PHD Inhibitor, 12{2,6,4}]", "values": [{"measurement": "IC50", "setting": "Prolyl hydroxylase EGLN3", "value": 16.8, "unit": "nM"}, {"measurement": "IC50", "setting": "Prolyl hydroxylase EGLN2", "value": 14.5, "unit": "nM"}, {"measurement": "IC50", "setting": "Egl nine homolog 1", "value": 113, "unit": "nM"}]}
{"molecule": "Cn1c(=O)c(C(=O)NCC(=O)O)c(O)c2cc(CNC(=O)[C@@H](Cc3ccccc3)NC(=O)[C@@H](Cc3ccc4ccccc4c3)NC(=O)C(C)(C)C)ccc21", "note": "[PHD Inhibitor, 12{2,1,4}]", "values": [{"measurement": "IC50", "setting": "Prolyl hydroxylase EGLN3", "value": 18.8, "unit": "nM"}, {"measurement": "IC50", "setting": "Prolyl hydroxylase EGLN2", "value": 60.8, "unit": "nM"}, {"measurement": "IC50", "setting": "Egl nine homolog 1", "value": 308, "unit": "nM"}]}
{"molecule": "CC(=O)N[C@@H](CC(=O)O)C(=O)NCc1ccc2c(c1)c(O)c(C(=O)NCC(=O)O)c(=O)n2C", "note": "[PHD Inhibitor, 8{6}]", "values": [{"measurement": "IC50", "setting": "Egl nine homolog 1", "value": 138, "unit": "nM"}]}
{"molecule": "CC(C)C[C@H](NC(=O)[C@H](Cc1cccc2ccccc12)NC(=O)C(C)(C)C)C(=O)NCc1ccc2c(c1)c(O)c(C(=O)NCC(=O)O)c(=O)n2C", "note": "[PHD Inhibitor, 12{3,1,4}]", "values": [{"measurement": "IC50", "setting": "Prolyl hydroxylase EGLN3", "value": 77, "unit": "nM"}, {"measurement": "IC50", "setting": "Prolyl hydroxylase EGLN2", "value": 32, "unit": "nM"}, {"measurement": "IC50", "setting": "Egl nine homolog 1", "value": 1100, "unit": "nM"}]}
{"molecule": "CC(=O)N[C@@H](Cc1ccccc1)C(=O)NCc1ccc2c(c1)c(O)c(C(=O)NCC(=O)O)c(=O)n2C", "note": "[PHD Inhibitor, 8{1}]", "values": [{"measurement": "IC50", "setting": "Egl nine homolog 1", "value": 482, "unit": "nM"}]}
{"molecule": "Cn1c(=O)c(C(=O)NCC(=O)O)c(O)c2cc(CNC(=O)[C@@H](Cc3ccccc3)NC(=O)[C@@H](Cc3ccccc3)NC(=O)c3ccccc3)ccc21", "note": "[PHD Inhibitor, 12{2,4,1}]", "values": [{"measurement": "IC50", "setting": "Prolyl hydroxylase EGLN3", "value": "20 nM and 5.3 nM"}, {"measurement": "IC50", "setting": "Prolyl hydroxylase EGLN2", "value": "22 nM and 8.5 nM"}]}
{"molecule": "Cn1c(=O)c(C(=O)NCC(=O)O)c(O)c2cc(CNC(=O)[C@H](Cc3ccccc3)NC(=O)[C@H](Cc3ccccc3)NC(=O)CCN3CCOCC3)ccc21", "note": "[PHD Inhibitor, 12{1,5,3}]", "values": [{"measurement": "IC50", "setting": "Prolyl hydroxylase EGLN3", "value": 165, "unit": "nM"}, {"measurement": "IC50", "setting": "Prolyl hydroxylase EGLN2", "value": 95, "unit": "nM"}, {"measurement": "IC50", "setting": "Egl nine homolog 1", "value": 2920, "unit": "nM"}]}
{"molecule": "CC(=O)N[C@@H](Cc1ccc2ccccc2c1)C(=O)N[C@@H](Cc1ccccc1)C(=O)NCc1ccc2c(c1)c(O)c(C(=O)NCC(=O)O)c(=O)n2C", "note": "[PHD Inhibitor, 12{1,1,2}]", "values": [{"measurement": "IC50", "setting": "Prolyl hydroxylase EGLN3", "value": 4.5, "unit": "nM"}, {"measurement": "IC50", "setting": "Prolyl hydroxylase EGLN2", "value": 4.3, "unit": "nM"}, {"measurement": "IC50", "setting": "Egl nine homolog 1", "value": 35, "unit": "nM"}]}
{"molecule": "CC(=O)N[C@@H](CCCCN)C(=O)NCc1ccc2c(c1)c(O)c(C(=O)NCC(=O)O)c(=O)n2C", "note": "[PHD Inhibitor, 8{7}]", "values": [{"measurement": "IC50", "setting": "Egl nine homolog 1", "value": 409, "unit": "nM"}]}
{"molecule": "Cn1c(=O)c(C(=O)NCC(=O)O)c(O)c2cc(CNC(=O)[C@@H](Cc3ccccc3)NC(=O)[C@@H](Cc3ccccc3)NC(=O)C(C)(C)C)ccc21", "note": "[PHD Inhibitor, 12{2,3,4}]", "values": [{"measurement": "IC50", "setting": "Prolyl hydroxylase EGLN3", "value": "12.6 nM and 13.2 nM"}, {"measurement": "IC50", "setting": "Prolyl hydroxylase EGLN2", "value": "12.9 nM and 14.6 nM"}, {"measurement": "IC50", "setting": "Egl nine homolog 1", "value": "86.4 nM and 104 nM"}]}
{"molecule": "CC(=O)N[C@@H](CO)C(=O)NCc1ccc2c(c1)c(O)c(C(=O)NCC(=O)O)c(=O)n2C", "note": "[PHD Inhibitor, 8{5}]", "values": [{"measurement": "IC50", "setting": "Egl nine homolog 1", "value": 265, "unit": "nM"}]}
{"molecule": "CC(=O)N[C@@H](CC(C)C)C(=O)N[C@H](Cc1ccccc1)C(=O)NCc1ccc2c(c1)c(O)c(C(=O)NCC(=O)O)c(=O)n2C", "note": "[PHD Inhibitor, 12{2,6,2}]", "values": [{"measurement": "IC50", "setting": "Prolyl hydroxylase EGLN3", "value": 16.2, "unit": "nM"}, {"measurement": "IC50", "setting": "Prolyl hydroxylase EGLN2", "value": 11, "unit": "nM"}, {"measurement": "IC50", "setting": "Egl nine homolog 1", "value": 67.5, "unit": "nM"}]}
{"molecule": "CC(=O)N[C@H](Cc1ccc2ccccc2c1)C(=O)N[C@H](Cc1ccccc1)C(=O)NCc1ccc2c(c1)c(O)c(C(=O)NCC(=O)O)c(=O)n2C", "note": "[PHD Inhibitor, 12{2,1,2}]", "values": [{"measurement": "IC50", "setting": "Prolyl hydroxylase EGLN3", "value": 6.4, "unit": "nM"}, {"measurement": "IC50", "setting": "Prolyl hydroxylase EGLN2", "value": 13.5, "unit": "nM"}, {"measurement": "IC50", "setting": "Egl nine homolog 1", "value": 93.8, "unit": "nM"}]}
{"molecule": "CC(=O)N[C@H](Cc1ccccc1)C(=O)N[C@H](Cc1ccccc1)C(=O)NCc1ccc2c(c1)c(O)c(C(=O)NCC(=O)O)c(=O)n2C", "note": "[PHD Inhibitor, 12{2,3,2}]", "values": [{"measurement": "IC50", "setting": "Prolyl hydroxylase EGLN3", "value": "11.7 nM and 13.5 nM"}, {"measurement": "IC50", "setting": "Prolyl hydroxylase EGLN2", "value": "7.2 nM and 12.2 nM"}, {"measurement": "IC50", "setting": "Egl nine homolog 1", "value": "37.4 nM and 90.2 nM"}]}
{"molecule": "Cn1c(=O)c(C(=O)NCC(=O)O)c(O)c2cc(CNC(=O)[C@@H](Cc3ccccc3)NC(=O)C[C@H](Cc3ccccc3)NC(=O)c3ccccc3)ccc21", "note": "[PHD Inhibitor, 12{2,3,1}]", "values": [{"measurement": "IC50", "setting": "Prolyl hydroxylase EGLN3", "value": 40, "unit": "nM"}, {"measurement": "IC50", "setting": "Prolyl hydroxylase EGLN2", "value": 49, "unit": "nM"}, {"measurement": "IC50", "setting": "Egl nine homolog 1", "value": 1560, "unit": "nM"}]}
{"molecule": "CC(=O)N[C@@H](Cc1ccccc1)C(=O)N[C@H](Cc1ccccc1)C(=O)NCc1ccc2c(c1)c(O)c(C(=O)NCC(=O)O)c(=O)n2C", "note": "[PHD Inhibitor, 12{2,5,2}]", "values": [{"measurement": "IC50", "setting": "Prolyl hydroxylase EGLN3", "value": 8.9, "unit": "nM"}, {"measurement": "IC50", "setting": "Prolyl hydroxylase EGLN2", "value": 7.6, "unit": "nM"}, {"measurement": "IC50", "setting": "Egl nine homolog 1", "value": 44.8, "unit": "nM"}]}
{"molecule": "CC(=O)N[C@H](Cc1ccccc1)C(=O)NCc1ccc2c(c1)c(O)c(C(=O)NCC(=O)O)c(=O)n2C", "note": "[PHD Inhibitor, 8{2}]", "values": [{"measurement": "IC50", "setting": "Egl nine homolog 1", "value": 112, "unit": "nM"}]}
{"molecule": "CC(=O)N[C@H](CC(C)C)C(=O)NCc1ccc2c(c1)c(O)c(C(=O)NCC(=O)O)c(=O)n2C", "note": "[PHD Inhibitor, 8{3}]", "values": [{"measurement": "IC50", "setting": "Egl nine homolog 1", "value": 521, "unit": "nM"}]}
{"molecule": "CC(=O)NCC(=O)NCc1ccc2c(c1)c(O)c(C(=O)NCC(=O)O)c(=O)n2C", "note": "[PHD Inhibitor, 8{4}]", "values": [{"measurement": "IC50", "setting": "Egl nine homolog 1", "value": 293, "unit": "nM"}]}
{"molecule": "CC(=O)NCc1ccc2c(c1)c(O)c(C(=O)NCC(=O)O)c(=O)n2C", "note": "[PHD Inhibitor, 5]", "values": [{"measurement": "IC50", "setting": "Egl nine homolog 1", "value": 546, "unit": "nM"}]}
{"molecule": "CC(=O)N[C@@H](Cc1ccc2ccccc2c1)C(=O)NCC(=O)NCc1ccc2c(c1)c(O)c(C(=O)NCC(=O)O)c(=O)n2C", "note": "[PHD Inhibitor, 12{4,1,2}]", "values": [{"measurement": "IC50", "setting": "Prolyl hydroxylase EGLN3", "value": 13.5, "unit": "nM"}, {"measurement": "IC50", "setting": "Prolyl hydroxylase EGLN2", "value": 5.1, "unit": "nM"}, {"measurement": "IC50", "setting": "Egl nine homolog 1", "value": 41.9, "unit": "nM"}]}
